Measured values from US9096625B2, “BCL-2/BCL-XL inhibitors and therapeutic methods using the same” (THE REGENTS OF THE UNIVERSITY OF MICHIGAN, priority 2013, dated 2015).

What was measured:
[1] = biological target: T1, Mcl-1 (Homo sapiens, UniProt Q07820); details: versus Bcl-2, Bcl-xL, Bcl-w; cited from earlier work
Target sequence in this assay (Q07820 whole entry, species assumed): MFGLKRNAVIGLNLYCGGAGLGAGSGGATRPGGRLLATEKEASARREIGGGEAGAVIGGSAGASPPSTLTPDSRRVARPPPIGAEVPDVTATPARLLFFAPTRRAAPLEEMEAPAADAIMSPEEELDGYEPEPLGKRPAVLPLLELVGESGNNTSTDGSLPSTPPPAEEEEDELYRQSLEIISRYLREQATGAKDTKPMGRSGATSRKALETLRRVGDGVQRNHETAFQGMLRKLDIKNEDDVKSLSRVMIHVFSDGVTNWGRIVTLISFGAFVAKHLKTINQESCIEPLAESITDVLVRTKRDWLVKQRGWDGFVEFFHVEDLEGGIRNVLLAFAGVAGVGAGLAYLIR

[2] = biological target: T2, A1 (Homo sapiens, UniProt Q16548); details: versus Bcl-2, Bcl-xL, Bcl-w; cited from earlier work
T2 sequence (Q16548 1-175): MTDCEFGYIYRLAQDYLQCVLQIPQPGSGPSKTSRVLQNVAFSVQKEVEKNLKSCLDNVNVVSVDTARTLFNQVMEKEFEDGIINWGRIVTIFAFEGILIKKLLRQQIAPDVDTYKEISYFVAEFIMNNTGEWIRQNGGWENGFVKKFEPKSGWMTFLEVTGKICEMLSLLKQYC

[3] = biological target: T1, Mcl-1; test: Fluorescence polarization (FP)-based binding assay, Mcl-1; details: FP saturation, 2 nM probe, increasing protein concentrations; read-out: Kd of fluorescent probe to Mcl-1
Target sequence in this assay (Q07820 whole entry): as the sequence (Q07820 whole entry, species assumed) above

| Compound | specificity over Mcl-1 [1] | specificity over A1 [2] | Kd [3] [nM] |
| --- | --- | --- | --- |
| CC1(C)CCC(c2ccc(Cl)cc2)=C(CN2CCN(c3ccc(C(=O)NS(=O)(=O)c4ccc(N[C@H](CCN5CCOCC5)CSc5ccccc5)c(S(=O)(=O)C(F)(F)F)c4)cc3)CC2)C1 [ABT-263] | high specificity | high specificity |  |
| CN(C)CC[C@H](CSc1ccccc1)Nc1ccc(S(=O)(=O)NC(=O)c2ccc(N3CCN(Cc4ccccc4-c4ccc(Cl)cc4)CC3)cc2)cc1[N+](=O)[O-] [ABT-737] | high specificity | high specificity |  |
| Flu-BID: homemade fluorescein labeled BID (79-99) peptide, fluorescent probe for Mcl-1 FP assay |  |  | 6.8 ± 1.5 |
